Consider three compounds from ChEMBL document CHEMBL1132634, “Bound structures of novel P3-P1' beta-strand mimetic inhibitors of thrombin” (J Med Chem, 1999).

Assay [1] has as its target T1, Prothrombin (Homo sapiens, UniProt P00734). The assay is described as follows: Binding affinity towards thrombin was determined.
Assay [2] concerns the target T1, Prothrombin.
Description: Binding rate constant towards thrombin was determined

As usually defined, the Ki is a measure of affinity in units of concentration, obtained from inhibition or displacement. `N=C(N)NCCC[C@H](NC(=O)[C@@H]1CC[C@@H]2CC[C@@](N)(Cc3ccccc3)C(=O)N21)C(=O)c1nc2ccccc2s1`: the Ki on Prothrombin [1] turned out to be 0.65 nM. `NCCCC[C@H](NC(=O)[C@@H]1CCN2CC[C@@](N)(Cc3ccccc3)C(=O)N12)C(=O)C(=O)NC1CCCCC1` gave a k on at Prothrombin [2] of 1e+06 M⁻¹ s⁻¹. As for `N=C(N)NCCC[C@H](NC(=O)[C@@H]1CCN2CC[C@@](N)(Cc3ccccc3)C(=O)N12)C(=O)C(=O)NCCc1ccccc1`, on Prothrombin [2], the k on amounted to 640000 M⁻¹ s⁻¹.
